Laboratory results: patent publication US20240124454A1, “TRICYCLIC COMPOUND AND USE THEREOF” (NANJING ZAIMING PHARMACEUTICAL CO., LTD., priority 2020, published 2024)
Like-named read-outs stand apart in the source and are kept apart here.

Experiments:
HCT116 MTAP^−/− cells = assay: Cell proliferation inhibition test (Cell-Titer Glo), HCT116 MTAP−/−; format: cell-based, human; conditions: 6 days, read-out: HCT116 MTAP−/− Antiproliferative activity IC50
In short: (§1)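 Cells seeded at 400 per well, overnight, then exposed 6 days at 37 °C to compound from 10 μM top final concentration in 3-fold dilutions. Viability by ATP luminescence (Cell-Titer Glo), normalised to medium-only and DMSO controls, IC50 by curve fitting.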

CYP2D6 = CYP2D6 (Homo sapiens (Human), UniProt P10635); assay: CYP2D6 inhibition in human liver microsomes (dextromethorphan substrate); format: in vitro ADME; conditions: human liver microsome
Method: Test Example 7. Inhibitory Effect of Compound of the Present Application on Enzymatic Activity of CYP2C9, CYP2D6, and CYP3A4
The inhibition of CYP2C9, CYP2D6, and CYP3A4 activity by the compound of the present application was determined using the following method.
I. Experimental materials and instruments • 1. Human liver microsome (Corning 452117) • 2. NADPH (Solarbio 705Y021) • 3. Positive substrates diclofenac (Sigma SLBV3438), dextromethorphan (TRC 3-EDO-175-1), and midazolam (Cerilliant FE01161704) • 4. Positive inhibitors sulfaphenazole (D. Ehrenstorfer GmbH 109012), quinidine (TCI WEODL-RE), and ketoconazole (Sigma 100M1091V) • 5. AB Sciex Triple Quad 5500 liquid chromatography-mass spectrometry system
1. Preparation of 100 mM phosphate-buffered saline (PBS): 7.098 g Na2HPO4 was weighed. 500 mL pure water was added. The mixture was dissolved by sonication to give solution A. 3.400 g KH2PO4 was weighed. 250 mL pure water was added. The mixture was dissolved by sonication to give solution B. The solution A was placed in a stirrer, and the solution B was slowly added until the pH reached 7.4, so that the 100 mM PBS buffer was prepared.
2. A 10 mM NADPH solution was prepared with a 100 mM PBS buffer. A 10 mM stock solution of the compound of the present application was diluted with DMSO to give a compound working solution at a concentration of 200×(6000, 2000, 600, 200, 60, 20, and 0 μM). The positive inhibitor stock solution was diluted with DMSO to give a positive inhibitor working solution at a concentration of 200×(sulfaphenazole, 1000, 300, 100, 30, 10, 3, and 0 μM; quinidine/ketoconazole, 100, 30, 10, 3, 1, 0.3, and 0 μM). Substrate working solutions (120 μM diclofenac, 400 μM dextromethorphan, and 200 μM midazolam) at a concentration of 200× were prepared with water, acetonitrile, or acetonitrile/methanol.
3. 2 μL of 20 mg/mL liver microsome solution, 1 μL of substrate working solution, 1 μL of compound working solution, and 176 μL of PBS buffer were taken, mixed well, and placed in a 37° C. water bath for pre-incubation for 15 min. 1 μL of sulfaphenazole, quinidine, or ketoconazole working solution was added to the positive control group instead of the compound working solution. At the same time, 10 mM NADPH solution was placed together in the 37° C. water bath for pre-incubation for 15 min. After 15 min, 20 μL of NADPH was added to each well to initiate the reaction. The mixture was incubated at 37° C. for 5 min (CYP2C9), 20 min (CYP2D6), or 5 min (CYP3A4). All incubated samples were in duplicate. After incubation for the corresponding period of time, 400 μL of icy methanol containing internal standard was added to all samples to stop the reaction. The mixture was vortexed, mixed well, and centrifuged for 40 min at 4° C. at 3220 g. 100 μL of the supernatant was transferred to a feeding plate after the centrifugation was completed, and 100 μL ultrapure water was added. The mixture was well mixed for LC-MS/MS analysis.
The reduction of metabolite production in the treatment groups versus the control group was compared by the peak area ratios of the sample to the internal standard, and the IC50 value was calculated using Excel XLfit 5.3.1.3.
Percentages of remaining activity were calculated according to the following formula:
Remaining activity%=peak area ratio of metabolite to internal standardtest sample/peak area ratio of metabolite to internal standardblank solvent×100%.

HCT116 WT cells = assay: Cell proliferation inhibition test (Cell-Titer Glo), HCT116 WT; format: cell-based, human; conditions: 6 days, read-out: HCT116 WT Antiproliferative activity IC50
In short: as §1

CYP2D6, sequence (P10635 whole entry): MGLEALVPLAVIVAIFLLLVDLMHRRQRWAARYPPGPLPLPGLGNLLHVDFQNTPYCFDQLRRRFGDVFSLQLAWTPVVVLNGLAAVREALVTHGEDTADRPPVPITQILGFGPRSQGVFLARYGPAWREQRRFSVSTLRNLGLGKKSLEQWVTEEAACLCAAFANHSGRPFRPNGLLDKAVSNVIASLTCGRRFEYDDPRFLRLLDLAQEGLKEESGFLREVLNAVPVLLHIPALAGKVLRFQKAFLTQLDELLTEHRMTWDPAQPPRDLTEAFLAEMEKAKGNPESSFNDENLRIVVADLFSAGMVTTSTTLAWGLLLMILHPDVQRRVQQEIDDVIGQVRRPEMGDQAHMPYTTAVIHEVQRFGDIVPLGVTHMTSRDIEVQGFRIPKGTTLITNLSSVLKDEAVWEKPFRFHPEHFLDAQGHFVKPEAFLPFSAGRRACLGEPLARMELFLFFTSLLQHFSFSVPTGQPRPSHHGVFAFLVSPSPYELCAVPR

| SMILES | IC50 (HCT116 MTAP^−/− cells; Homo sapiens, HCT-116, 144 h) | IC50 (CYP2D6) | IC50 (HCT116 WT cells; Homo sapiens, HCT-116, 144 h) | IC50 (HCT116 MTAP^−/− cells) | IC50 (HCT116 WT cells) |
| --- | --- | --- | --- | --- | --- |
| Cn1cnc2c(=O)n(-c3cccnc3C3CC3)c3cc(C(F)(F)F)ccc3c21 (single isomer, unassigned) [Compound 48-P2, 5-(2-cyclopropylpyridin-3-yl)-1-methyl-7-(trifluoromethyl)-1,5-dihydro-4H-imidazo[4,5-c]quinolin-4-one] | 90.9 nM | > 30000 nM | > 10000 nM |  |  |
| Cn1cnc2c(=O)n(-c3cccnc3C3CC3)c3cc(Cl)ccc3c21 (single isomer, unassigned) [Compound 49-P2, 7-chloro-5-(2-cyclopropylpyridin-3-yl)-1-methyl-1,5-dihydro-4H-imidazo[4,5-c]quinolin-4-one] | 34.4 nM | > 30000 nM | 488 nM |  |  |
| O=c1c2ncoc2c2ccc(C(F)(F)F)nc2n1-c1cccnc1C1CC1 (single isomer, unassigned) [Compound 81-P2, 5-(2-cyclopropylpyridin-3-yl)-7-(trifluoromethyl)oxazolo[4,5-c][1,8]naphthyridin-4(5H)-one] | 111 nM | > 30000 nM | 1340 nM |  |  |
| Cn1cnc2c(=O)n(-c3cccc(F)c3Cl)c3cc(Cl)ccc3c21 [Compound 39, 7-chloro-5-(2-chloro-3-fluorophenyl)-1-methyl-1,5-dihydro-4H-imidazo[4,5-c]quinolin-4-one] |  | > 30000 nM |  | 106 nM | 626 nM |
| Cc1ncccc1-n1c(=O)c2ncoc2c2ccc(C(F)(F)F)nc21 [Compound 40, 5-(2-methylpyridin-3-yl)-7-(trifluoromethyl)oxazolo[4,5-c][1,8]naphthyridin-4(5H)-one] | 120 nM | > 30000 nM | 414 nM |  |  |
| Cc1ncccc1-n1c(=O)c2ncn(C)c2c2ccc(C(F)(F)F)cc21 [Compound 45, 1-methyl-5-(2-methylpyridin-3-yl)-7-(trifluoromethyl)-1,5-dihydro-4H-imidazo[4,5-c]quinolin-4-one] | 134 nM | > 30000 nM | 902 nM |  |  |

Second part, led by results:

| IC50 (HCT116 MTAP^−/− cells; Homo sapiens, HCT-116, 144 h) | IC50 (CYP2D6) | IC50 (HCT116 WT cells; Homo sapiens, HCT-116, 144 h) | SMILES | IC50 (HCT116 MTAP^−/− cells) | IC50 (HCT116 WT cells) |
| --- | --- | --- | --- | --- | --- |
| 76.5 nM | > 30000 nM | 474 nM | Cc1ncccc1-n1c(=O)c2ncn(C)c2c2ccc(C(F)(F)F)nc21 (atropisomer, axis not shown) [Compound 20, 1-methyl-5-(2-methylpyridin-3-yl)-7-(trifluoromethyl)-1,5-dihydro-4H-imidazo[4,5-c][1,8]naphthyridin-4-one] |  |  |
| 155 nM | > 30000 nM | 663 nM | Cn1cnc2c(=O)n(-c3cccc(F)c3Cl)c3nc(C(F)(F)F)ccc3c21 (atropisomer, axis not shown) [Compound 25, 5-(2-chloro-3-fluorophenyl)-1-methyl-7-(trifluoromethyl)-1,5-dihydro-4H-imidazo[4,5-c][1,8]naphthyridin-4-one] |  |  |
| 70.5 nM | > 30000 nM | 384 nM | Cn1cnc2c(=O)n(-c3cccc(F)c3Cl)c3nc(C(F)(F)F)ccc3c21 (single isomer, unassigned) [Compound 25-P2, 5-(2-chloro-3-fluorophenyl)-1-methyl-7-(trifluoromethyl)-1,5-dihydro-4H-imidazo[4,5-c][1,8]naphthyridin-4-one] |  |  |
| 80.1 nM | 18200 nM | 3820 nM | Cn1cnc2c(=O)n(-c3cccnc3C(F)(F)F)c3nc(C(F)(F)F)ccc3c21 (single isomer, unassigned) [Compound 41-P2, 1-methyl-7-(trifluoromethyl)-5-(2-(trifluoromethyl)pyridin-3-yl)-1,5-dihydro-4H-imidazo[4,5-c][1,8]naphthyridin-4-one] |  |  |
| 44.2 nM | > 30000 nM | 1320 nM | Cn1cnc2c(=O)n(-c3cccnc3C3CC3)c3nc(C(F)(F)F)ccc3c21 (single isomer, unassigned) [Compound 42-P2, 5-(2-cyclopropylpyridin-3-yl)-1-methyl-7-(trifluoromethyl)-1,5-dihydro-4H-imidazo[4,5-c][1,8]naphthyridin-4-one] |  |  |
